Activity calls are given as the source filed them.
What was measured:
[1] = target: T1, Ubiquitin-conjugating enzyme E2 N (Homo sapiens, UniProt P61088); assay type: functional;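 also: Dose-response confirmation in a TR-FRET assay detecting UBC13-driven polyubiquitin chain formation, inhibition measured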
T1 sequence (P61088 whole entry): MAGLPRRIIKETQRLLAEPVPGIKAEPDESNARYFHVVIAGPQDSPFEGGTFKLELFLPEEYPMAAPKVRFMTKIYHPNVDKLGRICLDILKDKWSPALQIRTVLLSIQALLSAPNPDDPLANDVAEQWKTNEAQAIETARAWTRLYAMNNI

[2] = target: T2, Corticotropin-releasing factor receptor 2/Corticotropin-releasing factor-binding protein (Homo sapiens, UniProt P24387+Q13324); experiment: Dose Response confirmation of uHTS hits for small molecule antagonists of the CRF-binding protein and CRF-R2 receptor complex.; assay type: functional; settings: read-out: IC50_Mean
T2 sequence (Q13324 whole entry): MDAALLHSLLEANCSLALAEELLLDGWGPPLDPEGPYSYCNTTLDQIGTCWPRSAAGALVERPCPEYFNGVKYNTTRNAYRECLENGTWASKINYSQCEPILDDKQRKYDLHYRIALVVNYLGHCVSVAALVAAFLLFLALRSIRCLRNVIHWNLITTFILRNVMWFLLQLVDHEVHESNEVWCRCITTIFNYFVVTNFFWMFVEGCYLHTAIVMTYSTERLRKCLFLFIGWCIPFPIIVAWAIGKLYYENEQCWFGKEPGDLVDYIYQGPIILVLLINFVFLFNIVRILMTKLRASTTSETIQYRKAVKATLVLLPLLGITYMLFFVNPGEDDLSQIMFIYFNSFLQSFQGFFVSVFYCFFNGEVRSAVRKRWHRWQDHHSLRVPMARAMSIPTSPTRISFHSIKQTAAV
T2 sequence (P24387 whole entry): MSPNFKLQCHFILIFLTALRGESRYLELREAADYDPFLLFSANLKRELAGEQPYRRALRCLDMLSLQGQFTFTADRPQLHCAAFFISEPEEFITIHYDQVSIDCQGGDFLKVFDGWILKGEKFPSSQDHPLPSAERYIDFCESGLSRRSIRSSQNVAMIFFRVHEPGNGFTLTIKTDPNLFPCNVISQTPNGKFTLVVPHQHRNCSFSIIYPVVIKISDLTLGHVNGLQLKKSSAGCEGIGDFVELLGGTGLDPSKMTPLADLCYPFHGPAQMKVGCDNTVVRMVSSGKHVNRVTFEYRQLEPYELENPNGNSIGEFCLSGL

[3] = target: T2, Corticotropin-releasing factor receptor 2/Corticotropin-releasing factor-binding protein; experiment: activators of CRF receptor 2 with binding protein – uHTS hits, confirmation (AID 602473); assay type: functional; settings: read-out: EC50_Mean
[4] = Trypanosoma cruzi growth suppression in host cells – NIH3T3 host cells, beta-gal luminescence, confirmation (AID 2044); assay type: functional, cell-based;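 also: intracellular parasites grown in NIH/3T3 mouse fibroblasts as host cells; luminescent beta-galactosidase reporter signal from transgenic T. cruzi replicating inside host cells; inhibitors lower the luminescence signal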
[5] = NIH3T3 cell viability loss – ATP luminescence, mouse fibroblasts, counter-screen, dose response (AID 2010); assay type: functional, cell-based;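 also: cells exposed to compound for about 90 hours before reading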
Vero = experiment: cells; assay type: functional; settings: Chlorocebus sabaeus
[6] = target: Luciferin 4-monooxygenase (Photinus pyralis, UniProt P08659); experiment: inhibition of purified Photinus pyralis luciferase – biochemical, luminescence, dose response (AID 1891)
[7] = Luminescence Cell-Based Dose Confirmation HTS to Identify Inhibitors of Platelet Dense Granule Release. [Related pubchem assays: 1663 (Primary HTS), 1678 (Summary of Project)]; assay type: functional
[8] = microbe, parasite or virus in culture; assay type: functional; settings: Mycobacterium tuberculosis
[9] = target: T3, Replicative DNA helicase DnaB (Mycobacterium tuberculosis, UniProt P9WMR3); experiment: DnaB intein splicing inhibitors, dose response, biochemical, cell-free fluorescence (AID 449749); assay type: functional
T3 sequence (P9WMR3 whole entry): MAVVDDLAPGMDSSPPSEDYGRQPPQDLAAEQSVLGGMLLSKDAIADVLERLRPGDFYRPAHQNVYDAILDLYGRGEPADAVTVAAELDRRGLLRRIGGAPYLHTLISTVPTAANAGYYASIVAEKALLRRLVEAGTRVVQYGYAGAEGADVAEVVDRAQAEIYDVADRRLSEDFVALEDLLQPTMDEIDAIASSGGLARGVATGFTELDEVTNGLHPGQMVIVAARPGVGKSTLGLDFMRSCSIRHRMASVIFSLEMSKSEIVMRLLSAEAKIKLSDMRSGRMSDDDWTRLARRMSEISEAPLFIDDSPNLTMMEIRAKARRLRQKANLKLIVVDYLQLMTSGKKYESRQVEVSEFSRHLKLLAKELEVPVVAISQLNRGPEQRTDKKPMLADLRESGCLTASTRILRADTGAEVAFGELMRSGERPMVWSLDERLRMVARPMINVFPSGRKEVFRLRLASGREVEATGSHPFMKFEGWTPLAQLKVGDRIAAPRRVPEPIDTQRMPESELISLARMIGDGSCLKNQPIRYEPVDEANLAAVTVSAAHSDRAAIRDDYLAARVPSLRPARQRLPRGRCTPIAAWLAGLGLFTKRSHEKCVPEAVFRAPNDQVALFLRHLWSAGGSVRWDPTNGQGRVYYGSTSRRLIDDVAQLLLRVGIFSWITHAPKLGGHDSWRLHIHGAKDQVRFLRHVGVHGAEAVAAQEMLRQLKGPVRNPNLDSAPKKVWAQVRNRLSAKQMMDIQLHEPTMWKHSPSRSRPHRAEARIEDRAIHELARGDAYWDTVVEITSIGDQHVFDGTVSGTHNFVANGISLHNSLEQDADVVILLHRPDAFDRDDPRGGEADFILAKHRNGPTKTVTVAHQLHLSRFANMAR

Protein RecA = target: T4, Protein RecA (Mycobacterium tuberculosis, UniProt P9WHJ3); experiment: Fluorescence Cell-Free Homogeneous Dose Retest to Identify Inhibitors of RecA-Intein Splicing Activity. [Related pubchem assays (depositor defined):AID2097, AID2223, AID489010, AID492950]; assay type: functional
T4 sequence (P9WHJ3 whole entry): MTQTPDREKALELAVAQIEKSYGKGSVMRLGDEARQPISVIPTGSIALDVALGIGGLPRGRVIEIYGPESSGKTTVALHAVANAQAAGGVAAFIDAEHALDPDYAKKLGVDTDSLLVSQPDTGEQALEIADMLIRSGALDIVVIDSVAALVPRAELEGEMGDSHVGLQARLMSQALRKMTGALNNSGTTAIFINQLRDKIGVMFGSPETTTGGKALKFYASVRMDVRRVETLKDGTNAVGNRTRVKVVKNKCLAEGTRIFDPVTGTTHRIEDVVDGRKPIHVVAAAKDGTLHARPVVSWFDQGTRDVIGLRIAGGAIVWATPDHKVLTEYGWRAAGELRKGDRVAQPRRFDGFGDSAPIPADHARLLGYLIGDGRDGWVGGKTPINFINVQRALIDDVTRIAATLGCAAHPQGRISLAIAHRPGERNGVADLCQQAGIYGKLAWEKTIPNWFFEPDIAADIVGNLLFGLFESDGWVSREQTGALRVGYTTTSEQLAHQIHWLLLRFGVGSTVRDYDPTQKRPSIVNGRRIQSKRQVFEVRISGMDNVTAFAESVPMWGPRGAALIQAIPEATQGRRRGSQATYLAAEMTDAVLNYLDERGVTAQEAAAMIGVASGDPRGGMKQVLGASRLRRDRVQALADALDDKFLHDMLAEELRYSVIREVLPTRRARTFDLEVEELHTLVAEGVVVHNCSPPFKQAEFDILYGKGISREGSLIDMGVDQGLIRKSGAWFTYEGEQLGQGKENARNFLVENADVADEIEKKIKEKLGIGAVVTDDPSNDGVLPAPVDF

[10] = viability of PTEN-deleted HCT116 cells – cell-based, HCT116 PTEN knockout, dose response (AID 1047); assay type: functional;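 also: HCT116 colon tumor cells with PTEN knocked out; cells exposed to compound for 60 hours before readout; potency for loss of cell viability measured by luminescence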
[11] = viability of HCT116 lacking mutant beta-catenin – cell-based, human colon tumor, dose response (AID 1045); assay type: functional;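 also: HCT116 colon tumor cells with beta catenin knocked out; cells exposed to compound for 60 hours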
[12] = target: T5, RNA-binding protein pos-1 (Caenorhabditis elegans, UniProt G5EF15); experiment: disruptors of C. elegans POS-1 RNA interaction – biochemical, fluorescence polarization, dose response (AID 1964);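 also: purified POS-1 fused to maltose binding protein made in E. coli; potency of compounds blocking POS-1 binding to fluorescent RNA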
T5 sequence (G5EF15 whole entry): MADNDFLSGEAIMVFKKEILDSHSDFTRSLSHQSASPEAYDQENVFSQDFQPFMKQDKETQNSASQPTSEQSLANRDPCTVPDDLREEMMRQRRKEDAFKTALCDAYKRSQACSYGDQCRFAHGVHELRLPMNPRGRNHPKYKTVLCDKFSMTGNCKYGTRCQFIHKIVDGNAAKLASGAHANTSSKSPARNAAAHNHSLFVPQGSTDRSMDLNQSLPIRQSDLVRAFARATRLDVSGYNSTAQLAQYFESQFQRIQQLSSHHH

INS1 = experiment: INS-1E survival protection against cytokine death – cell-based, luminescence, retest, dose response (AID 449756); assay type: functional; settings: Rattus norvegicus;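 also: cell death triggered by IL-1 beta plus TNF-alpha plus IFN-gamma mixture; protective hits raise ATP signal compared with cytokine alone wells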
Paired box protein Pax-8 = Paired box protein Pax-8 (Homo sapiens, UniProt Q06710); experiment: PAX8 transcriptional activity inhibition in RMG-I – RMG-I cells, luciferase, cherry-pick, dose response (AID 687027); assay type: functional, cell-based;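 also: luciferase reporter driven by Pax8 target thyroperoxidase promoter measured by SteadyGlo luminescence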
Sequence of Paired box protein Pax-8 (Q06710 whole entry): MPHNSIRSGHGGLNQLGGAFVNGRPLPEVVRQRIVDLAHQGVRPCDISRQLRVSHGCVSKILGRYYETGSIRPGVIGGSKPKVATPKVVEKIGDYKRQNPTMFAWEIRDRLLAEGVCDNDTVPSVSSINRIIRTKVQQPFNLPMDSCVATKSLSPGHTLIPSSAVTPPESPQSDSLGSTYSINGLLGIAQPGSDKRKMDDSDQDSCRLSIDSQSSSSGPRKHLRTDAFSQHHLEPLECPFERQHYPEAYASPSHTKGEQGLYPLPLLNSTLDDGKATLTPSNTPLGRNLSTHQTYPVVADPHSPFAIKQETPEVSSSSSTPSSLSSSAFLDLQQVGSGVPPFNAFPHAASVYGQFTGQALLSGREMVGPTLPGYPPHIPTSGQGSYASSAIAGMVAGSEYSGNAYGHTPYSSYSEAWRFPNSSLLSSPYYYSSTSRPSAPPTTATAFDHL

Sequence of Luciferin 4-monooxygenase (P08659 whole entry): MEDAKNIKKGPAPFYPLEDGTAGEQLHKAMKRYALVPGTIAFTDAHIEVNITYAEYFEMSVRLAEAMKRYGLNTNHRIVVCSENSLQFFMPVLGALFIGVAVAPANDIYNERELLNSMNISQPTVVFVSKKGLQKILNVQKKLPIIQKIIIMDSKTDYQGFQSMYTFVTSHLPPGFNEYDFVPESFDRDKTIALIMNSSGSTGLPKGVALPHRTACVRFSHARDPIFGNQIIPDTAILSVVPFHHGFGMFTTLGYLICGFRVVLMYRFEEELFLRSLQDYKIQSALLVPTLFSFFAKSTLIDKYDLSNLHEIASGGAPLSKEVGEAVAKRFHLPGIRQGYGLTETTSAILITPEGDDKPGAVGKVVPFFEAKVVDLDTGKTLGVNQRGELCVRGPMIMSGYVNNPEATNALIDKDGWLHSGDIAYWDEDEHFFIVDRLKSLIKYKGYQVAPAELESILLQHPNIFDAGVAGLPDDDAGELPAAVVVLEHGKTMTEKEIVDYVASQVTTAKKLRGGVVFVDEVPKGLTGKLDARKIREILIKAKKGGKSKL

CC1CCN(c2c(NCc3ccc(C(=O)N4CCN(C5CCCCC5)CC4)cc3)c(=O)c2=O)CC1
IC50 [1]: > 20 µM (inactive)

COc1ccc(SCC(=O)Nc2ccccc2Cl)cc1
IC50 [2]: > 47.1 µM (inactive) | EC50 [3]: > 53 µM (inactive)

Cc1sc(NC(=O)c2ccco2)c(C(c2ccccc2)N2CCC(C)CC2)c1C (stereo not drawn)
EC50 [4]: 1.09 µM (active) | EC50 [5]: > 60 µM (not active) | CC50 (Vero): 14.1 µM (active)

COc1cccc(C(=O)NCc2nnc(SCC(=O)Nc3nccs3)n2-c2ccccc2)c1
EC50 [6]: > 112 µM (not active) | EC50 [7]: > 112 µM (not active)

Cc1ccc(-c2nnc(SCC(=O)N3CCN(c4ccccc4)CC3)o2)cc1
IC50 [2]: > 47.1 µM (inactive) | EC50 [3]: > 53 µM (inactive)

CN(C(=S)NC(=O)c1ccc(Cl)cc1)C1CCCCC1
CC50 [8]: > 40 µM (active)

CC(=O)c1c(S)nc(-c2ccccc2)nc1N1CCN(C)CC1
EC50 [6]: > 112 µM (not active) | EC50 [7]: > 112 µM (not active)

COc1ccccc1CN1CCCC(C(=O)N(C)Cc2ccccc2)C1 (stereo not drawn)
IC50 [2]: > 47.1 µM (inactive) | EC50 [3]: > 53 µM (inactive)

CC(C)CC(C(=O)Nn1cnnc1)N1C(=O)c2ccccc2C1=O (stereo not drawn)
IC50 [2]: > 47.1 µM (inactive) | EC50 [3]: > 53 µM (inactive)

COc1ccc(-c2nc(NC(=O)Cn3ccc(C(F)(F)F)n3)sc2C)cc1
CC50 [8]: > 40 µM (active)

CCOC(=O)c1nnc(-c2ccccc2)nc1Sc1c(Cl)cccc1Cl
AC50 [9]: 2.22 µM (active) | EC50 (Protein RecA): > 380 µM (inconclusive) | EC50 [10]: 26.9 µM (active) | EC50 [11]: 27.7 µM (active)

O=C(NCCCN1CCOCC1)c1ccccc1
EC50 [6]: > 112 µM (not active) | EC50 [7]: > 112 µM (not active)

O=C(/C=C/c1ccncc1)c1ccc2c(c1)OCCO2
CC50 (Vero): > 25 µM (active)

COc1ccc(S(=O)(=O)NNC(=O)C(=O)NNc2ccccn2)cc1
EC50 [12]: > 300 µM (not active)

Cc1cccc(OCC(=O)N2CCN(C(=O)c3cccs3)CC2)c1
EC50 [6]: > 112 µM (not active) | EC50 [7]: > 112 µM (not active)

Cc1ccc(-c2noc(CCC(=O)NCC3CCN(Cc4cccc(C)c4)CC3)n2)cc1
IC50 [1]: > 20 µM (inactive)

CC(=O)Nc1ccc(N2C(C(C)=O)=NN(c3ccc(Cl)cc3)C2c2sccc2C)cc1 (stereo not drawn)
CC50 [8]: > 40 µM (active)

O=C(NN=C(c1ccccc1)c1ccccn1)c1ccccc1
AC50 (INS1): 0.736 µM (active) | CC50 (Vero): 3.11 µM (active)

O=C(CCN1C(=O)/C(=C\c2ccccc2)SC1=S)N1CCOCC1
CC50 (Vero): 24.5 µM (active)

COc1ccc(C=NN=C2c3ccccc3-c3ccccc32)cc1O
CC50 (Vero): > 25 µM (active)

Cc1nc(N)c2c(Cc3cccc4ccccc34)nn(C(C)(C)C)c2n1
IC50 [1]: > 20 µM (inactive)

Cc1ccc(S(=O)(=O)N2[C@@H](c3ccc(Br)cc3)C(C(=O)O)=CC[C@H]2c2cccc(C)c2)cc1
IC50 [2]: > 47.1 µM (inactive) | EC50 [3]: > 53 µM (inactive)

C[C@H]1CN([C@@H](C)CO)S(=O)(=O)c2ccc(Br)cc2O[C@@H]1CN(C)Cc1cccc(F)c1
CC50 (Vero): > 25 µM (active)

C[C@@H]1CCCCO[C@@H](CN(C)CC2CC2)[C@@H](C)CN([C@H](C)CO)C(=O)c2cc(N(C)C)ccc2O1
IC50 [2]: > 47.1 µM (inactive) | EC50 [3]: > 53 µM (inactive)

O=C(C1CCC1)N1CCCCN2[C@H](CO)[C@H](c3ccc(-c4cccc(F)c4)cc3)[C@H]2C1
AC50 (Paired box protein Pax-8): 19.1 µM (active)

C[C@H]1CN([C@@H](C)CO)C(=O)c2ccccc2-c2ccccc2CO[C@H]1CN(C)S(=O)(=O)c1ccc(C(F)(F)F)cc1
AC50 (Paired box protein Pax-8): 9.62 µM (active)

O=C1CCc2ccc(OCCCCN3CCN(c4cccc(Cl)c4Cl)CC3)cc2N1 [ARIPIPRAZOLE]
CC50 [8]: 29.4 µM (active)
